Key:
[1] = tested on: MRC5 cells; assay: In vitro cytotoxicity study on MRC5 cells (MTS); format: cell-based, human
Protocol: The cytotoxicity of the compound (IIa) according to the invention, and that of GR24 and of GR5 as comparative compounds, was evaluated in vitro, at concentrations of 10^−4 M and 10^−5 M, on MRC5 cells, in DMSO, in the following way.
MRC5 cells (human lung (fibroblasts) were cultured in Dulbecco's modified Eagle medium (DMEM) supplemented with: 25 mM of glucose, 10% (v/v) of fetal calf serum, 100 IU of penicillin, 100 μg/ml of streptomycin and 1.5 μg/ml of fungizone, and kept under 5% of CO2 at 37° C.
96-well plates were seeded with 2100 MRC5 cells per well in 200 μl of medium. After 24 hours, each of the compounds dissolved in DMSO was added for 72 hours, at a final concentration of 10^−4 M or 10^−5 M in a fixed volume of DMSO. The controls received an equal volume of DMSO.
The viable cell number was measured at 490 nm with the MTS reagent (Promega), and, for each compound, the concentration causing 50% inhibition of cell growth, IC50, was calculated.

[2] = tested on: Phelipanche ramosa pv T; assay: Germinative activity on parasitic plants; format: in vivo; conditions: counted after 4 days
Protocol: (§1) In this example, the germinative activity of the compounds in accordance with the invention (IIa) and (IIIb) and of the comparative compound GR24 was evaluated on the parasitic plants: Orobanche cumana, Orobanche minor, Striga hermonthica, Phelipanche ramosa (pv T and pv C).
(§2) The test protocol used was the following.
(§3) Two populations of Phelipanche ramosa were used in this study, pathovar (pv) C and T, described in the publication by Benharrat et al. (2005). Seeds of Phelipanche ramosa pathovar C were collected at Saint Martin de Fraigneau, France, on broomrapes parasitizing winter oilseed rape (Brassica napus L.) in 2005 and seeds of Phelipanche ramosa pathovar T were collected in Sarthe, France, on broomrapes developing on hemp (Cannabis sativa L.) in 2007.
(§4) The seeds are stored dry in the dark at 25° C.
(§5) The compounds to be studied were resuspended in acetone at 10 mmol·l^−1, then diluted with water to 1 mmol·l^−1 (water/acetone; v/v; 99/1). Dilutions of 1×10^−3 mol·l^−1 to 1×10^−15 mol·l^−1 were then prepared in a water/acetone mixture (v/v; 99/1). Seeds of parasitic plants were surface-sterilized according to the protocol described in the publication by Vieira Dos Santos et al. (2003), then resuspended in sterile water (10 g·l^−1) and distributed on a 96-well plate (in a proportion of 50 μl, i.e. approximately 100 seeds per well). After preconditioning (7 days, 21° C., in the dark, plate hermetically sealed, except for the seeds of S. hermonthica, which were preconditioned at 30° C.), the compounds to be studied were added and the volumes adjusted to 100 μl with water (water/acetone; v/v; 999/1).
(§6) In a plate, a range of concentrations from 10^−13 mol·l^−1 to 10^−6 mol·l^−1 was applied for GR24 and (IIa) and from 10^−12 to 10^−5 mol·l^−1 for (IIIb). Controls were carried out with a water/acetone mixture (v/v; 999/1) and without seeds. The plates were incubated so as to allow germination (21° C., in the dark or 30° C. for Striga hermonthica.). After 4 days, the seeds which had germinated were counted under a stereomicroscope (SZX10, Olympus). The seeds were considered to have germinated when the radicle was sticking out of the seed tegument. Each germination test was repeated at least 3 times. For each compound tested, dose-response curves (g=f(c), where g is the germination percentage and c the concentration (mol·l^−1)), and the EC50 (median effective concentration) were modeled on the basis of a 4-parameter logistic curve calculated with SigmaPlot® 10.0.
(§7) The percentages of maximum germination induced by the compounds tested for each parasitic plant were determined.

[3] = tested on: Phelipanche ramosa pv C; assay: Germinative activity on parasitic plants; format: in vivo; conditions: counted after 4 days
Protocol: as §1, §2, §3, §4, §5, §6, §7

[4] = tested on: Striga hermonthica; assay: Germinative activity on parasitic plants; format: in vivo; conditions: counted after 4 days, 30° C.
Protocol: as §1, §2
Seeds of Striga hermonthica (Del.) Benth were collected at Gadarif, Eastern Sudan, in 1999.
as §4, §5
as §6, with “The seeds were considered to have germinated when the radicle was sticking out of the seed tegument. Each germination test was repeated at least 3 times.” left out
as §7

[5] = tested on: pea mutant rms1; assay: Inhibition of branching in the pea, application directly on the axillary bud; format: in vivo, Pisum sativum L.; conditions: Experiment 7, FIG. 9; 0.1 nM, 1 nM, 10 nM and 100 nM
[6] = tested on: pea rms1 mutants; assay: Hydroponic culture test in pea; format: in vivo, Pisum sativum L.; conditions: 1 μM in hydroponic culture solution, 8 days
Protocol: For this example, ramosus (rms1) hyperbranched pea (Pisum sativum L.) mutants were used.
More particularly, rms1 (rms1-10) hyperbranched mutant plants were used. The nutritive solution (100%) was prepared by adding the following macronutrients to 1000 l of water: HNO3 (0.28 l), (NH4)2HPO4 (120 g), Ca(NO3)2 (40 g), Mg(NO3)2 (140 g), KNO3 (550 g), (NH4)2MoO4 (0.05 g), H3BO3 (15 g), MnSO4.H2O (2 g), ZnSO4.7H2O (1 g), CuSO4.5H2O (0.25 g), Sequestrene® (10 g) (Fe-EDTA solution). The pea seeds were germinated in moist sand for 6 days, then placed in holes of a lid (35 holes/lid, 20 mm in diameter) of an opaque PVC pot containing the hydroponic culture solution (47 l, pH 5.8).
In a first experiment, acetone or the compound to be tested (dissolved in acetone) was added to the hydroponic culture solution so as to obtain a final concentration of 0 or 1 μM of compound to be tested and 0.01% of acetone.
The hydroponic culture solution was continually aerated by means of an aquarium pump and replaced each week. 8 days after the start of the treatment, the lengths of bud/branch (nodes 1 to 6) were measured with an electronic sliding caliper.
This experiment was carried out for the compounds according to the invention (IIa) and (IIIb), and also the GR24 compound as comparative compound. A negative control (<<CTL 0>>), corresponding to a treatment with the solvent alone, was also carried out.
The results (mean data on 20 plants), in terms of, on the one hand, length of the branches at nodes 3 to 5 and, on the other hand, plant height, are shown respectively in FIGS. 11 and 12.
The same experiment was carried out for the compound in accordance with the invention (II″g) and the comparative compound GR24. Dimethyl sulfoxide (DMSO) or the compound to be tested, dissolved in DMSO, was added to the hydroponic culture solution so as to obtain a final concentration of 0 or 3 μM of compound to be tested and 0.01% of DMSO.
The results (mean data on 10 to 12 plants), in terms, on the one hand, of length of the branches at nodes 3 to 4 and, on the other hand, of plant height, are shown respectively in FIGS. 13 and 14.

CC1=C(C)C(Sc2ccc(Cl)cc2)OC1=O (stereo not drawn) [Compound (IIa), 5-((4-chlorophenyl)thio)-3,4-dimethylfuran-2(5H)-one]
inhibition at 100 µM ([1]; Homo sapiens, MRC5, 10^−4M, 72 hours, ± standard error, read-out: Percentage inhibition of MRC5 cell growth): 11 ± 5%
inhibition at 10 µM ([1]; Homo sapiens, MRC5, 10^−5M, 72 hours, ± standard error, read-out: Percentage inhibition of MRC5 cell growth): 7 ± 4%
cytotoxicity compared with GR5 and GR24 ([1]; concentration of 10^−4 M): cytotoxicity which is much lower than that of the comparative compounds GR5 and GR24
Percentage of maximum germination induced [2]: 72 ± 2%
Percentage of maximum germination induced [3]: 27 ± 4%
Percentage of maximum germination induced [4]: no (no significant germination compared to the negative control (<2%))
inhibitory activity on bud growth at node 4 (length of bud/branch 8 days after treatment at node 4) [5]: equivalent to that of GR24 at the strongest concentrations, and slightly better at the lowest concentration of 0.1 nM
length of the branches at nodes 3 to 5 ([6]; FIG. 11): activity of the compounds in accordance with the invention (IIa) and (IIIb) on all the branches of nodes 3 to 5
plant height ([6]; FIG. 12): significant effect on plant height is also demonstrated, comparable between the comparative compound GR24 and the compound in accordance with the invention (IIa)

Source: patent US9532569B2 (INSTITUT NATIONAL DE LA RECHERCHE AGRONOMIQUE, priority 2012, dated 2017)
